Test results: ChEMBL document CHEMBL1201862, “PubChem BioAssay data set” (2004)
The source made the active and inactive calls.

What was measured:
[1] = target: T1, Trace amine-associated receptor 1 (Homo sapiens, UniProt Q96RJ0); experiment: Fluorescence-based cell-based high throughput dose response assay to identify agonists of the human trace amine associated receptor 1 (TAAR1).; format: functional
T1 sequence (Q96RJ0 whole entry): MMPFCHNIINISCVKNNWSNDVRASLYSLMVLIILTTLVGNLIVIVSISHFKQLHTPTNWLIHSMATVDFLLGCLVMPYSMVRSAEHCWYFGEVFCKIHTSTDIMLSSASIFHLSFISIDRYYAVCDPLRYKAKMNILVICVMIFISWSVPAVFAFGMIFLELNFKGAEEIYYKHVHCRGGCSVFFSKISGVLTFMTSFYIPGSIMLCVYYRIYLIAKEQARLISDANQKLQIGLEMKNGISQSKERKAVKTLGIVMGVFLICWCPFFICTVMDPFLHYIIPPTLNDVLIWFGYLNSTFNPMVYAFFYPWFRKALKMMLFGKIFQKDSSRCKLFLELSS

cells [2] = format: functional, cell-based
[3] = target: T1, Trace amine-associated receptor 1; experiment: Counterscreen for agonists of the human trace amine associated receptor 1 (hTAAR1): Fluorescence-based cell-based high throughput dose response assay to identify hTAAR1 agonist that also desensitize TAAR1 receptor response.; format: functional
cells [4] = format: functional, cell-based; remark: listed apart in the source
[5] = HGIII-sPLA2 enzyme inhibition potency – biochemical, QFRET, IC50, dose response (AID 743457);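 further: green fluorescence rise as the enzyme cleaves BODIPY PC-A2 in liposomes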
HEK293 = experiment: EBV LMP1 TES2 canonical NF-kB signalling blockers – cell-based, HEK293, luciferase, cherry-pick, dose response (AID 588343); format: functional; settings: Homo sapiens
Major prion protein = Major prion protein (Homo sapiens, UniProt P04156); format: functional, cell-based
cells [6] = experiment: cells
[7] = blockers of HIV-1 ZM109 envelope-driven cell-cell fusion – HeLa effector, CEM target cells, luciferase, cherry-pick, dose response (AID 652058); format: functional, cell-based;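 further: luciferase signal from HIV-1 Env mediated cell-cell fusion of effector and target cells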
[8] = off-target signal loss in HeLa-CEM21 co-culture – HeLa F-luc CTL cells, cherry-picked, counter-screen for HIV-1 Env fusion inhibitor project, dose response (AID 652040); format: functional, cell-based;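 further: potency for signal decrease marking cytotoxic or nonspecific inhibition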
[9] = HIV-1 AD8 envelope cell-cell fusion blockers – cherry-pick, dose response (AID 652062); format: functional, cell-based;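 further: luciferase signal from cell-cell fusion driven by HIV-1 clade B AD8 Env; potency is for inhibitors of fusion seen as a drop in luminescence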
[10] = viability loss in CEM21 cells – cell-based, CellTiter-Glo luminescence, cherry-picked, cytotoxicity control for viral fusion inhibitor project, dose response (AID 652042); format: functional;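 further: potency for signal decrease meaning cytotoxicity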
[11] = activation of miR-122 Renilla sensor silencing – cell-based, Huh7 psiCHECK-miR122, Renilla luciferase, cherry-picked, dose response (AID 651956); format: functional;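 further: huh7 hepatoma cells stably carrying a psiCHECK-2 miR-122 sensor plasmid; renilla luciferase signal reporting endogenous miR-122 activity after 48 h compound exposure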
[12] = Counterscreen for inhibitors of Trypanosoma brucei methionyl tRNA synthetase (MetRS): Luminescence-based cell-based high throughput dose response assay to identify compounds that are cytotoxic to Jurkat human T lymphocyte cells.; format: functional
[13] = target: T2, Methionyl-tRNA synthetase, putative (Trypanosoma brucei brucei, UniProt Q38C91); format: functional, Trypanosoma brucei brucei strain 927/4 GUTat10.1
T2 sequence (Q38C91 whole entry): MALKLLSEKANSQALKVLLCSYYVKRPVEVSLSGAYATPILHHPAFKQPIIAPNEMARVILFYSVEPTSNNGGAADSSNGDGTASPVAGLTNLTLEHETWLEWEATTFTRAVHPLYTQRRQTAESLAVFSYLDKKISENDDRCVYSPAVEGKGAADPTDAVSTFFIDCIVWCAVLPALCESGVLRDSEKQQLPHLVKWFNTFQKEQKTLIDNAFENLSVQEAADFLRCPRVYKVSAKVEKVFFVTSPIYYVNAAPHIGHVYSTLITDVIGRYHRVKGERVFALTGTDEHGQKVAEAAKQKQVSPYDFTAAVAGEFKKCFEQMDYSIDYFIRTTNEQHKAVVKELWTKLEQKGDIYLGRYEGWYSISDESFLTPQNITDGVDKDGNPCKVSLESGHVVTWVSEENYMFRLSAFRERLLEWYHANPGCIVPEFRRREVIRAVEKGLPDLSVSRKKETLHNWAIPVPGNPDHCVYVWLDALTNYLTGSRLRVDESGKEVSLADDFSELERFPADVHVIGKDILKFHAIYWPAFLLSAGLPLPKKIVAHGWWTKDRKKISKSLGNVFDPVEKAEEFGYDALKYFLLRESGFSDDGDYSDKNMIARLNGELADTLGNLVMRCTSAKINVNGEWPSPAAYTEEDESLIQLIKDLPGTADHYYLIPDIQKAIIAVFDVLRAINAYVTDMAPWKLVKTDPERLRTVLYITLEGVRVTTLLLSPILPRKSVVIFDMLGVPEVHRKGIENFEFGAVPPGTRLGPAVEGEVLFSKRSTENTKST

[14] = target: T2, Methionyl-tRNA synthetase, putative; format: functional, Trypanosoma brucei brucei strain 927/4 GUTat10.1; remark: listed apart in the source
[15] = target: T3, Nuclear receptor subfamily 0 group B member 1 (Homo sapiens, UniProt P51843); format: functional, cell-based;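 further: HEK293T cells transfected with SF-1 and DAX-1 plus StAR promoter luciferase reporter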
T3 sequence (P51843 whole entry): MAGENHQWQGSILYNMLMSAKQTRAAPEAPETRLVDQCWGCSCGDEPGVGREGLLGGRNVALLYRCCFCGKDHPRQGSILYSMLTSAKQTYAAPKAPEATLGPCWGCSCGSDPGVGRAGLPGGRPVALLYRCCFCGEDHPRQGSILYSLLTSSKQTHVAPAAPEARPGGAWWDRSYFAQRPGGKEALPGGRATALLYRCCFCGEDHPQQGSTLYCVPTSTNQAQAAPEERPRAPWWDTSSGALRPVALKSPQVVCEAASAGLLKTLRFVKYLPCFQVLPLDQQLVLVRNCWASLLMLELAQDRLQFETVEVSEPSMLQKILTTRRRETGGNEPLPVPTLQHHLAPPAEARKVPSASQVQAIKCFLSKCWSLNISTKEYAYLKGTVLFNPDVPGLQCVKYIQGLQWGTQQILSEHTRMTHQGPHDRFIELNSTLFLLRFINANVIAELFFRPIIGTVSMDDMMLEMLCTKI

cells [16] = format: functional, cell-based; remark: listed apart in the source

## Cn1cccc1CNCCc1ccccc1F
[1]
  EC50: 1.74 µM (active)
Cells [2]
  EC50: > 29.9 µM (inactive)
[3]
  IC50: 8.12 µM (active)
Cells [4]
  IC50: > 29.9 µM (inactive)

## NC(=S)NN=Cc1nccc2c(C(F)(F)C(F)(F)C(F)(F)F)cccc12
[5]
  IC50: 31.9 µM (inactive)
HEK293
  AC50: 0.643 µM (active)

## CCc1nc(SCC(=O)Nc2ccc(N(C)C)cc2)c2ccccc2n1
Major prion protein
  IC50: 4.47 µM (active)
Cells [6]
  IC50: > 138 µM (inactive)

## N=c1nc2n(cc1F)C1OC(CO)C(O)C1O2 (configuration not stated)
[7]
  AC50: < 0.26 µM (active)
[8]
  AC50: < 0.26 µM (active)
[9]
  AC50: 0.699 µM (active)
[10]
  AC50: 17.9 µM (active)

## CCOc1ccc(NC(=S)N(CCCN2CCCC2)Cc2cccn2Cc2ccc(Cl)cc2)cc1
[11]
  AC50: 46.1 µM (active)

## c1ccc(CC/N=C2\CCCc3c2[nH]c2ccccc32)cc1
[1]
  EC50: 0.106 µM (active)
Cells [2]
  EC50: > 29.9 µM (inactive)
[3]
  IC50: 0.341 µM (active)
Cells [4]
  IC50: > 29.9 µM (inactive)

## CCC[C@H]1CN(Cc2cccnc2)C(=O)[C@@H]1CC(=O)Nc1ccc(Br)cc1
[12]
  IC50: 83.3 µM (inactive)
[13]
  IC50: 3.49 µM (active)
[14]
  IC50: 8.41 µM (active)

## Clc1ccc(-c2nc3ccc(Br)cn3c2Cc2ccsc2)cc1
[15]
  IC50: > 67.5 µM (inactive)
Cells [16]
  IC50: > 67.5 µM (inactive)
